{
  "source": "patent US8178677B2",
  "about": "“Hydroxyalkyl substituted imidazoquinolines” (3M Innovative Properties Company, priority 2005, dated 2012)",
  "key": {"[1]": {"test_system": "tumor necrosis factor (α) (TNF-α) induction in human peripheral blood mononuclear cells (PBMC)", "experiment": "Cytokine induction in human cells (PBMC): TNF-α secreted into culture media, ORIGEN M-Series immunoassay", "format": "cell-based", "conditions": "for minimal effective concentration: Homo sapiens, PBMC, read-out: Minimum Effective Concentration (μM) TNF; for Maximal Response (pg/mL) TNF: maximal response in dose response curve, background-subtracted, reference-adjusted, * = below background of 40 pg/mL", "from_the_text": "(§1) Cytokine Induction in Human Cells\n(§2) An in vitro human blood cell system is used to assess cytokine induction. Activity is based on the measurement of interferon (α) and tumor necrosis factor (α) (IFN-α and TNF-α, respectively) secreted into culture media as described by Testerman et. al. in “Cytokine Induction by the Immunomodulators Imiquimod and S-27609”, Journal of Leukocyte Biology, 58, 365-372 (September, 1995).\n(§3) Blood Cell Preparation for Culture\n(§4) Whole blood from healthy human donors is collected by venipuncture into vacutainer tubes or syringes containing EDTA. Peripheral blood mononuclear cells (PBMC) are separated from whole blood by density gradient centrifugation using HISTOPAQUE-1077 (Sigma, St. Louis, Mo.) or Ficoll-Paque Plus (Amersham Biosciences Piscataway, N.J.). Blood is diluted 1:1 with Dulbecco's Phosphate Buffered Saline (DPBS) or Hank's Balanced Salts Solution (HBSS). Alternately, whole blood is placed in Accuspin (Sigma) or LeucoSep (Greiner Bio-One, Inc., Longwood, Fla.) centrifuge frit tubes containing density gradient medium. The PBMC layer is collected and washed twice with DPBS or HBSS and re-suspended at 4×10^6 cells/mL in RPMI complete. The PBMC suspension is added to 96 well flat bottom sterile tissue culture plates containing an equal volume of RPMI complete media containing test compound.\n(§5) The compounds are solubilized in dimethyl sulfoxide (DMSO). The DMSO concentration should not exceed a final concentration of 1% for addition to the culture wells. The compounds are generally tested at concentrations ranging from 30-0.014 μM. Controls include cell samples with media only, cell samples with DMSO only (no compound), and cell samples with reference compound.\n(§6) The solution of test compound is added at 60 μM to the first well containing RPMI complete and serial 3 fold dilutions are made in the wells. The PBMC suspension is then added to the wells in an equal volume, bringing the test compound concentrations to the desired range (usually 30-0.014 μM). The final concentration of PBMC suspension is 2×10^6 cells/mL. The plates are covered with sterile plastic lids, mixed gently and then incubated for 18 to 24 hours at 37° C. in a 5% carbon dioxide atmosphere.\n(§7) Following incubation the plates are centrifuged for 10 minutes at 1000 rpm (approximately 200×g) at 4° C. The cell-free culture supernatant is removed and transferred to sterile polypropylene tubes. Samples are maintained at −30 to −70° C. until analysis. The samples are analyzed for IFN-α by ELISA and for TNF-α by IGEN/BioVeris Assay.\n(§8) Interferon (α) and Tumor Necrosis Factor (α) Analysis\nThe TNF-α concentration is determined by ORIGEN M-Series Immunoassay and read on an IGEN M-8 analyzer from BioVeris Corporation, formerly known as IGEN International, Gaithersburg, Md. The immunoassay uses a human TNF-α capture and detection antibody pair (Catalog Numbers AHC3419 and AHC3712) from Biosource International, Camarillo, Calif. Results are expressed in pg/mL.\n(§9) In total, the data output of the assay consists of concentration values of TNF-α and IFN-α (y-axis) as a function of compound concentration (x-axis).\nAnalysis of the data has two steps. First, the greater of the mean DMSO (DMSO control wells) or the experimental background (usually 20 pg/mL for IFN-α and 40 pg/mL for TNF-α) is subtracted from each reading. If any negative values result from background subtraction, the reading is reported as “*”, and is noted as not reliably detectable. In subsequent calculations and statistics, “*”, is treated as a zero. Second, all background subtracted values are multiplied by a single adjustment ratio to decrease experiment to experiment variability. The adjustment ratio is the area of the reference compound in the new experiment divided by the expected area of the reference compound based on the past 61 experiments (unadjusted readings). […]"}, "[2]": {"test_system": "interferon (α) (IFN-α) induction in human peripheral blood mononuclear cells (PBMC)", "experiment": "Cytokine induction in human cells (PBMC): IFN-α secreted into culture media, ELISA", "format": "cell-based", "conditions": "read-out: Minimum Effective Concentration (μM) IFN", "from_the_text": "as §1, §2, §3, §4, §5, §6, §7, §8\nIFN-α concentration is determined with a human multi-subtype calorimetric sandwich ELISA (Catalog Number 41105) from PBL Biomedical Laboratories, Piscataway, N.J. Results are expressed in pg/mL.\nas §9\nAnalysis of the data has two steps. First, the greater of the mean DMSO (DMSO control wells) or the experimental background (usually 20 pg/mL for IFN-α and 40 pg/mL for TNF-α) is subtracted from each reading. If any negative values result from background subtraction, the reading is reported as “*”, and is noted as not reliably detectable. In subsequent calculations and statistics, “*”, is treated as a zero. Second, all background subtracted values are multiplied by a single adjustment ratio to decrease experiment to experiment variability. The adjustment ratio is the area of the reference compound in the new experiment divided by the expected area of the reference compound based on the past 61 experiments (unadjusted readings). […] The reference compound used is 2-[4-amino-2-ethoxymethyl-6,7,8,9-tetrahydro-α,α-dimethyl-1H-imidazo[4,5-c]quinolin-1-yl]ethanol hydrate (U.S. Pat. No. 5,352,784; Example 91) and the expected area is the sum of the median dose values from the past 61 experiments. […]"}, "[3]": {"conditions": "lowest tested concentration inducing TNF-α over 40 pg/mL, median where more than one experiment"}, "[4]": {"conditions": "lowest tested concentration inducing IFN-α over 20 pg/mL, median where more than one experiment"}, "[5]": {"conditions": "median where more than one experiment"}},
  "note": "Like-named read-outs stand apart in the source and are kept apart here.",
  "data": [
    {"smiles": "CC(C)(Cn1c(CO)nc2c(N)nc3ccccc3c21)NS(C)(=O)=O", "note": "[Example 7, N-[2-(4-Amino-2-hydroxymethyl-1H-imidazo[4,5-c]quinolin-1-yl)-1,1-dimethylethyl]methanesulfonamide]", "values": [
      {"measurement": "minimal effective concentration", "setting": "[1]; 18 to 24 hours incubation, tested 30-0.014 μM, lowest concentration inducing response over 40 pg/mL TNF-α, median of # experiments", "value": 30, "unit": "µM"},
      {"measurement": "minimal effective concentration", "setting": "[1]; [3]", "value": 30, "unit": "µM"},
      {"measurement": "melting point", "value": "262 to 265", "unit": "°C"},
      {"measurement": "minimal effective concentration", "setting": "[2]; 18 to 24 hours incubation, tested 30-0.014 μM, lowest concentration inducing response over 20 pg/mL IFN-α, median of # experiments", "value": 3.33, "unit": "µM"},
      {"measurement": "minimal effective concentration", "setting": "[2]; [4]", "value": 3.33, "unit": "µM"}
    ]},
    {"smiles": "CC(C)C(=O)NCCCn1c(CCO)nc2c(N)nc3ccccc3c21", "note": "[Example 141, N-{3-[4-Amino-2-(2-hydroxyethyl)-1H-imidazo[4,5-c]quinolin-1-yl]propyl}-2-methylpropionamide]", "values": [
      {"measurement": "minimal effective concentration", "setting": "[1]; [3]", "value": 30, "unit": "µM"},
      {"measurement": "melting point", "value": "196 to 198", "unit": "°C"},
      {"measurement": "minimal effective concentration", "setting": "[2]; [4]", "value": 0.04, "unit": "µM"}
    ]},
    {"smiles": "CC(C)NC(=O)NC(C)(C)Cn1c(CO)nc2c(N)nc3ccccc3c21", "note": "[Example 142, 1-[2-(4-Amino-2-hydroxymethyl-1H-imidazo[4,5-c]quinolin-1-yl)-1,1-dimethylethyl]-3-(1-methylethyl)urea]", "values": [
      {"measurement": "minimal effective concentration", "setting": "[1]; [3]", "value": "> 30", "unit": "µM"},
      {"measurement": "Maximal Response (pg/mL) TNF", "setting": "[1]; [5]", "value": "* (TNF below experimental background of 40 pg/mL.)"},
      {"measurement": "melting point", "value": "196 to 199", "unit": "°C"},
      {"measurement": "minimal effective concentration", "setting": "[2]; [4]", "value": 1.11, "unit": "µM"}
    ]},
    {"smiles": "CC(C)(Cn1c(CO)nc2c(N)nc3ccccc3c21)CS(C)(=O)=O", "note": "[Example 143, {4-Amino-1-[2,2-dimethyl-3-(methylsulfonyl)propyl]-1H-imidazo[4,5-c]quinolin-2-yl}methanol]", "values": [
      {"measurement": "minimal effective concentration", "setting": "[1]; [3]", "value": 30, "unit": "µM"},
      {"measurement": "melting point", "value": "230 to 232", "unit": "°C"},
      {"measurement": "minimal effective concentration", "setting": "[2]; [4]", "value": 1.11, "unit": "µM"}
    ]},
    {"smiles": "CC(C)NC(=O)NCCn1c(CO)nc2c(N)nc3ccccc3c21", "note": "[Example 144, N-{2-[4-amino-2-(hydroxymethyl)-1H-imidazo[4,5-c]quinolin-1-yl]ethyl}-N′-isopropylurea]", "values": [
      {"measurement": "minimal effective concentration", "setting": "[1]; [3]", "value": 3.33, "unit": "µM"},
      {"measurement": "melting point", "value": "> 240", "unit": "°C"},
      {"measurement": "minimal effective concentration", "setting": "[2]; [4]", "value": 0.37, "unit": "µM"}
    ]},
    {"smiles": "CS(=O)(=O)NCCCCn1c(CO)nc2c(N)nc3ccccc3c21", "note": "[Example 147, N-[4-(4-amino-2-hydroxymethyl-1H-imidazo[4,5-c]quinolin-1-yl)butyl]methanesulfonamide]", "values": [
      {"measurement": "minimal effective concentration", "setting": "[1]; [3]", "value": "> 30", "unit": "µM"},
      {"measurement": "Maximal Response (pg/mL) TNF", "setting": "[1]; [5]", "value": "* (TNF below experimental background of 40 pg/mL.)"},
      {"measurement": "melting point", "value": "216 to 219", "unit": "°C"},
      {"measurement": "minimal effective concentration", "setting": "[2]; [4]", "value": 0.37, "unit": "µM"}
    ]}
  ]
}
